Assay [1] has as its system MCF 10A (normal mammary epithelial cell). The assay can be described thus: MTT cell viability assay, MCF 10A. In kind it is cell-based. The settings on record: Homo sapiens, 48 h, normal cells, read-out: Antiproliferative Activity IC50 ± SEM, MCF 10A.
For assay [2], the system named is HeLa (cervical cancer cell line). Kind of assay: MTT cell viability assay, HeLa. It is filed as cell-based. The settings on record: Homo sapiens, 48 h, read-out: Antiproliferative Activity IC50 ± SEM, HeLa. The method, then: (§1) The tested cells were obtained from Shanghai Institute of Biochemistry and Cell Biology of the Chinese Academy of Sciences (Shanghai, China). HeLa and Hep G2 cell lines were cultured in Dulbecco’s modified Eagle’s medium (DMEM; gibco, Life Technologies, Carlsbad, CA, USA) supplemented with 10% fetal bovine serum (FBS; Biological Industries), 100 U/mL penicillin-streptomycin (PS; gibco, Life Technologies, Carlsbad, CA, USA). MCF-7 and A549 cell lines were maintained in RPMI-1640 media (gibco, Life Technologies, Carlsbad, CA, USA) supplemented with 10% FBS and 100 U/mL PS. FaDu cell lines were cultured in minimum essential medium (MEM; Gibco, Life Technologies, Carlsbad, CA, USA) supplemented with 10% FBS and 100 U/mL PS. MCF 10A cell lines were maintained in Mammary MEGM kit (Lonza/Clonetics) supplemented with 100 ng/mL cholera toxin (Sigma, Shanghai, China). Cell lines were grown at 37 °C in a humidified atmosphere of 5% CO2.
(§2) The growth-inhibitory effects against HeLa, Hep G2, MCF-7, FaDu, and A549 cancer cells and normal cell lines MCF 10A were determined by MTT assay. […] Cells were seeded in 96 well plates at a density of 1 × 10^4 cells per well and incubated for 24 h at 37 °C in a humidified atmosphere of 5% CO2. The cells were then incubated with various concentrations of drugs for 48 h in a 5% CO2 incubator at 37 °C. After treatment with 1 mg/mL 3-(4,5-dimethylthiazol-2-yl)-2,5-diphenyltetrazolium bromide (MTT) solution for 4 h, the formazan crystals were dissolved in 100 µL DMSO in each well. Plates were read on a microplate reader (Thermo Varioskan Flash 3001) at 490 nm. The experiment was performed in triplicate. The inhibitory concentration at 50% (IC50) was calculated based on concentration-inhibition relationships via regression using SPSS software (Version 17.0).
In general terms: Tetrazolium dyes change colour on reduction, which living cells bring about.

Assay [3] concerns FaDu (head and neck squamous carcinoma cell line). Kind of assay: MTT cell viability assay, FaDu. It is filed as cell-based, human. Particulars: for IC50: 48 h, MTT; for SI: selectivity index: SI = IC50 (MCF 10A)/IC50 (FaDu). The method, then: as §1, §2
For assay [4], the system named is MCF-7 (breast cancer cell line). Kind of assay: MTT cell viability assay, MCF-7. In kind it is cell-based. Particulars: Homo sapiens, MCF7, 48 h, read-out: Antiproliferative Activity IC50 ± SEM, MCF-7. As for the experimental part: as §1, §2
The subject of assay [5] is Hep G2 (hepatocarcinoma cell line). The assay can be described thus: MTT cell viability assay, Hep G2. In kind it is cell-based. Particulars: Homo sapiens, HepG2, 48 h, read-out: Antiproliferative Activity IC50 ± SEM, Hep G2. As for the experimental part:
as §1, §2

In assay [6] the test system is A549 (epithelial cancer cell line). The assay can be described thus: MTT cell viability assay, A549. Particulars: Homo sapiens, 48 h, read-out: Antiproliferative Activity IC50 ± SEM, A549. In kind it is cell-based. As for the experimental part: as §1, §2
The mark [7] stands for this setting: Homo sapiens, FaDu, read-out: Antiproliferative Activity IC50 ± SEM, FaDu.
Where [8] appears, read: read-out: Antiproliferative Activity IC50 ± SEM, FaDu.

Read-outs that look alike come from different tables or passages of the source.

Consider `O=C(NCCCCCCCCCCNC(=O)c1ccccn1)c1ccccn1` [Compound 15e, N,N′-(Decane-1,10-Diyl)Dipicolinamide], for which the IC50 (usually the concentration that gives 50% inhibition) in assay [1] amounted to 54.6 ± 5.92 µM; in assay [2], 37.7 ± 4.32 µM; in assay [3] (setting [7]), 8850 ± 450 nM; in assay [4] it was 21.5 ± 1.47 µM; in assay [5], 26.3 ± 5.36 µM; in assay [6] it was 23.08 ± 0.12 µM. In addition, the “SI: selectivity index” value in assay [3] is on record as 6.18.

On to `O=C(NCCCCCCCCCCNC(=O)c1cnccn1)c1cnccn1` [Compound 16e, N,N′-(Decane-1,10-Diyl)Bis(Pyrazine-2-Carboxamide)], for which the half-inhibitory concentration (IC50) is more than 100 µM in assay [1]; more than 100 µM in assay [2]; 88100 ± 1370 nM in assay [3] (setting [7]); more than 100 µM in assay [4]; more than 100 µM in assay [5]; more than 100 µM in assay [6].

On to `O=C(NCCCCCCCCCCNC(=O)c1cnc2ccccc2c1)c1cnc2ccccc2c1` [Compound 17e, N,N′-(Decane-1,10-Diyl)Bis(Quinoline-3-Carboxamide)], for which the IC50 in assay [1], in assay [2], in assay [4], in assay [5] and in assay [6] was more than 20 µM in each case. Moreover, the “SI: selectivity index” value in assay [3] was more than 84.75.

Turning to `O=C(NCCCCCCCCCCNC(=O)c1ccc2ncccc2c1)c1ccc2ncccc2c1` [Compound 18e, N,N′-(Decane-1,10-Diyl)Bis(Quinoline-6-Carboxamide)], the IC50 was more than 20 µM in assay [1]; more than 20 µM in assay [2]; less than 1000 nM in assay [3] (setting [7]); 697 ± 21 nM in assay [3] (setting [8]); more than 20 µM in assay [4]; more than 20 µM in assay [5]. The IC50 in assay [6] was more than 20 µM. Moreover, the “SI: selectivity index” value in assay [3] is more than 28.69.

Take `O=C(NCCCCCCCCCCNC(=O)c1ccc2nc[nH]c2c1)c1ccc2nc[nH]c2c1` [Compound 19e, N,N′-(Decane-1,10-Diyl)Bis(1H-Benzo[d]Imidazole-6-Carboxamide)]: the half-inhibitory concentration (IC50) is more than 20 µM in assay [1]; more than 20 µM in assay [2]; 8740 ± 440 nM in assay [3] (setting [7]); more than 20 µM in assay [4]; more than 20 µM in assay [5]; more than 20 µM in assay [6]. Further, the “SI: selectivity index” value in assay [3] is listed as more than 2.29.

For `O=C(NCCCCCCCCCCNC(=O)c1cc2ccccc2oc1=O)c1cc2ccccc2oc1=O` [Compound 20e, N,N′-(Decane-1,10-Diyl)Bis(2-Oxo-2H-Chromene-3-Carboxamide)], the IC50 in assay [1] was more than 20 µM; in assay [2], more than 20 µM; in assay [3] (setting [7]) it was more than 20000 nM; in assay [4] it was more than 20 µM; in assay [5] it was more than 20 µM; in assay [6], more than 20 µM.

Consider `O=C(NCCCCCCCCCCNC(=O)c1cc2ccccc2o1)c1cc2ccccc2o1` [Compound 21e, N,N′-(Decane-1,10-Diyl)Bis(Benzofuran-2-Carboxamide)], for which the half-maximal inhibitory concentration (IC50) in assay [1] was more than 20 µM; in assay [2] it was more than 20 µM; in assay [3] (Homo sapiens, FaDu, values in nM, read-out: IC50 in FaDu cells), 697 nM; in assay [3] (setting [7]), less than 1000 nM; in assay [3] (setting [8]), 665 ± 28 nM; in assay [4], more than 20 µM. In addition, the concentration for half-maximal inhibition (IC50) in assay [5] and in assay [6] was more than 20 µM throughout. The “SI: selectivity index” value in assay [3] is recorded as more than 30.08.

Take `O=C(NCCCCCCCCCCNC(=O)c1cc2ccccc2s1)c1cc2ccccc2s1` [Compound 22e, N,N′-(Decane-1,10-Diyl)Bis(Benzo[b]Thiophene-2-Carboxamide)]: the IC50 in assay [1], in assay [2], in assay [4], in assay [5] and in assay [6] was more than 20 µM in each case. Further, the “SI: selectivity index” value in assay [3] was more than 1000.

`Cn1cc(C(=O)NCCCCCCCCCCNC(=O)c2cn(C)c3ccccc23)c2ccccc21` [Compound 23e, N,N′-(Decane-1,10-Diyl)Bis(1-Methyl-1H-Indole-3-Carboxamide)]: the IC50 in assay [1] was more than 20 µM; in assay [2], more than 20 µM; in assay [3] (setting [7]) it was less than 1000 nM; in assay [3] (setting [8]), 638 ± 89 nM; in assay [4], more than 20 µM; in assay [5] it was more than 20 µM. Moreover, in assay [6], the half-inhibitory concentration (IC50) is more than 20 µM. Moreover, the “SI: selectivity index” value in assay [3] is more than 31.35.

Regarding `O=C(NCCCCCCCCCCNC(=O)c1ccc2cc[nH]c2c1)c1ccc2cc[nH]c2c1` [Compound 24e, N,N′-(Decane-1,10-Diyl)Bis(1H-Indole-6-Carboxamide)], the half-inhibitory concentration (IC50) in assay [1] is more than 20 µM; in assay [2], more than 20 µM; in assay [3] (setting [7]), 5300 ± 366 nM; in assay [4], more than 20 µM; in assay [5] it was more than 20 µM; in assay [6], more than 20 µM. The “SI: selectivity index” value in assay [3] was more than 3.78.

On to `O=C(/C=C/c1ccc(Cl)cc1)NCCCCCCCCCCNC(=O)/C=C/c1ccc(Cl)cc1` [Compound 25e, (2E,2′E)-N,N′-(Decane-1,10-Diyl)Bis(3-(4-Chlorophenyl)Acrylamide)], for which the concentration for half-maximal inhibition (IC50) in assay [1], in assay [2], in assay [4], in assay [5] and in assay [6] was more than 20 µM throughout. Moreover, the “SI: selectivity index” value in assay [3] was more than 357.14.

Consider `COc1ccc(/C=C/C(=O)NCCCCCCCCCCNC(=O)/C=C/c2ccc(OC)c(O)c2)cc1O` [Compound 26e, (2E,2′E)-N,N′-(Decane-1,10-Diyl)Bis(3-(3-Hydroxy-4-Methoxyphenyl)Acrylamide)], for which the IC50 in assay [1] is more than 20 µM; in assay [2] it was more than 20 µM; in assay [3] (setting [7]), more than 20000 nM; in assay [4], more than 20 µM; in assay [5], more than 20 µM; in assay [6] it was more than 20 µM.

As to `COc1ccc(/C=C/C(=O)NCCCCCCCCCCNC(=O)/C=C/c2ccc(OC)c(OC)c2)cc1OC` [Compound 27e, (2E,2′E)-N,N′-(Decane-1,10-Diyl)Bis(3-(3,4-Dimethoxyphenyl)Acrylamide)], the IC50 in assay [1] is more than 20 µM; in assay [2] it was more than 20 µM; in assay [3] (setting [7]), 4620 ± 539 nM; in assay [4], more than 20 µM; in assay [5], more than 20 µM; in assay [6] it was more than 20 µM. Also, the “SI: selectivity index” value in assay [3] is listed as more than 4.33.

`COc1cc(/C=C/C(=O)NCCCCCCCCCCNC(=O)/C=C/c2cc(OC)c(O)c(OC)c2)cc(OC)c1O` [Compound 28e, (2E,2′E)-N,N′-(Decane-1,10-Diyl)Bis(3-(4-Hydroxy-3,5-Dimethoxyphenyl)Acrylamide)]: the 50% inhibitory concentration (IC50) is more than 20 µM in assay [1]; more than 20 µM in assay [2]; more than 20000 nM in assay [3] (setting [7]); more than 20 µM in assay [4]; more than 20 µM in assay [5]; more than 20 µM in assay [6].

For `COc1cc(/C=C/C(=O)NCCCCCCCCCCNC(=O)/C=C/c2cc(OC)c(OC)c(OC)c2)cc(OC)c1OC` [Compound 29e, (2E,2′E)-N,N′-(Decane-1,10-Diyl)Bis(3-(3,4,5-Trimethoxyphenyl)Acrylamide)], the IC50 in assay [1] was more than 20 µM; in assay [2], more than 20 µM; in assay [3] (setting [7]), 5070 ± 461 nM; in assay [4] it was more than 20 µM; in assay [5], more than 20 µM; in assay [6], more than 20 µM. In addition, the “SI: selectivity index” value in assay [3] is listed as more than 3.95.

Regarding `Nc1ccccc1C(=O)NCCCCCCCCCCNC(=O)c1ccccc1N` [Compound 30e, N,N′-(Decane-1,10-Diyl)Bis(2-Aminobenzamide)], the IC50 in assay [1] is more than 20 µM; in assay [2], more than 20 µM; in assay [3] (setting [7]), more than 20000 nM; in assay [4] it was more than 20 µM; in assay [5], more than 20 µM; in assay [6], more than 20 µM.

In the case of `Nc1ccc(C(=O)NCCCCCCCCCCNC(=O)c2ccc(N)cc2)cc1` [Compound 31e, N,N′-(Decane-1,10-Diyl)Bis(4-Aminobenzamide)], the concentration for half-maximal inhibition (IC50) in assay [1] was more than 20 µM; in assay [2] it was more than 20 µM; in assay [3] (setting [7]) it was 5590 ± 628 nM; in assay [4], more than 20 µM; in assay [5], more than 20 µM; in assay [6], more than 20 µM. The “SI: selectivity index” value in assay [3] is more than 3.58.
